Data as given in patent US8962844B2, “1,3,4-oxadiazole and 1,3,4-thiadiazole β-lactamase inhibitors” (priority 2012, dated 2015).
Counter-ions that a name gives are not always drawn.

Legend:
[1] = tested on: bacterial strains that express the class D cephalosporinase OXA-15; assay: Standard BLI potentiation MIC / synergy MIC (sMIC) assays run in the presence of a β-lactam, OXA-15 expressing strains; assay type: cell-based, E. coli; conditions: BLI in combination with a β-lactam; comparison with Avibactam (comparator compound CCC)
Method in brief: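 Isogenic E. coli DH10B carrying cloned β-lactamase genes on pBR322-derived plasmid (blaTEM-1 promoter, tetracycline 25 μg/mL) tested by CLSI broth microdilution in CAMHB. Test compound and β-lactam each diluted and combined; MIC reported in presence of β-lactam.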

[2] = tested on: bacterial strains that express KPC β-lactamases; assay: Standard BLI potentiation MIC / synergy MIC (sMIC) assays run in the presence of a β-lactam, KPC expressing strains; assay type: cell-based; conditions: more active for at least one KPC strain and/or better spectrum of activity than Avibactam; BLI in combination with a β-lactam
Source text: Unless otherwise indicated, the activity of the BLI compounds can be described by the MIC value obtained from a Synergy MIC assay or a BLI potentiation assay (e.g as described herein), both of which are run in the presence of a β-lactam.
A set of β-lactamase expressing isogenic E. coli strains was constructed by cloning a β-lactamase gene into a customized derivative of pBR322 (GenBank Accession Number J01749) and transforming the engineered plasmids into E. coli. The NdeI restriction site within the plasmid backbone of pBR322 was removed to generate pBR322 ΔNdeI. The pBR322 ΔNdeI vector itself, minus the blaTEM-1 gene, was amplified using two primers: (1) pBR-Pbla 5′-cgcatatgactettectttttcaatattattg-3, SEQ ID 1, a primer with an engineered NdeI restriction site at the 3′ end of the blaTEM-1 promoter and (2) pBR-vec-1 5′-[…]-3′, SEQ ID 2, a primer with an engineered BamHI restriction site at the 3′ end of the blaTEM-1 open reading frame. The chloramphenicol resistance gene, cat, was generated by PCR amplification from pKD3 (GenBank Accession Number AY048742) using primers with an engineered NdeI restriction site at the 5′ end (Pbla-cat 5′-[…]-3′, SEQ ID 3) and an engineered BamHI restriction site at the 3′ end (Vec-1-cat 5′-[…]-3′, SEQ ID 4) of the resistance gene. The two PCR products, pBR322 ΔNdeI and cat were ligated together generating pBR-CBST (pBR322 ΔNdeI ΔTEM-1::cat Seq. ID 5) which retains both the pBR322 tetracycline resistance cassette, tetA, and the plasmid origin of replication but the blaTEM-1 gene was replaced by the cat gene.
Using this engineering strategy a number of plasmids producing β-lactamase genes from different classes (see below) were generated using synthetic genes with an engineered NdeI restriction site at the 5′ end and BamHI restriction site at the 3′ end of each gene (GenScript). Both the synthetic β-lactamase genes and cat gene were ligated into the NdeI/BamHI sites of the pBR322 ΔNdeI PCR product and transformed into electrocompetent E. coli ElectroMax DH10B (Invitrogen/Life Technologies). E. coli DH10B harboring the recombinant plasmids were selected on LB agar (supplemented with 25 μg/mL tetracycline) and single isolated colonies were then inoculated into 5 mL LB media (supplemented with 25 μg/mL tetracycline), and incubated at 37° C. with aeration (250 rpm) for 18 hrs. The cultures were frozen back at −80° C. in 20% glycerol. The DNA sequence of the cloned β-lactamase genes was confirmed. The β-lactamase gene expression in the recombinant E. coli strains was driven by the blaTEM-1 promoter in the pBR-CBST plasmid and was characterized by MIC profiling of the E. coli recombinant strains against comparator β-lactam/BLI combinations in broth microdilution assay.
The experimental protocol was performed according to Clinical and Laboratory Standards Institute (CLSI) guidelines with modifications as described below (CLSI guidelines can be derived from the CLSI document M07-A9 published in January 2012: “Methods for Dilution Antimicrobial Susceptibility Tests for Bacteria That Grow Aerobically; Approved Standard-Ninth Edition”).
To prepare for MIC testing, frozen glycerol stocks of clinical isolates (Klebsiella pneumoniae, Eschericia coli, Enterobacter spp, Citrobacter spp, or Pseudomonas aeruginosa) were used to streak for isolated colonies on rich, non-selective, tryptic soy agar containing 5% sheep's blood (TSAB). Frozen glycerol stocks of laboratory engineered, isogenic E. coli strains, which contain cloned β-lactamase expressing plasmids were used to streak for isolated colonies on rich, selective LB agar supplemented with 25 μg/mL tetracycline to maintain the plasmid. All strains were incubated at 37° C. for 18-24 hrs.
On the day of testing, primary cultures were started by scraping off 5-10 colonies from the TSAB plates containing clinical strains or the tetracycline supplemented LB plates containing engineered strains. […]

Row | SMILES | activity against bacterial strains that express the class D cephalosporinase OXA-15, compared with Avibactam [1] | activity and/or spectrum of activity against bacterial strains that express KPC β-lactamases, compared with Avibactam [2]
1 | CC(C)(N)Cc1nnc([C@@H]2CC[C@@H]3CN2C(=O)N3OS(=O)(=O)O)o1 [Compound 737, (2S,5R)-2-(5-(2-amino-2-methylpropyl)-1,3,4-oxadiazol-2-yl)-7-oxo-1,6-diazabicyclo[3.2.1]octan-6-yl hydrogen sulfate] | more active than Avibactam | more active than Avibactam
2 | N=C(N)NCC(O)Cc1nnc([C@@H]2CC[C@@H]3CN2C(=O)N3OS(=O)(=O)O)o1 (stereo partly drawn) [Compound 730, (2S,5R)-2-(5-(3-guanidino-2-hydroxypropyl)-1,3,4-oxadiazol-2-yl)-7-oxo-1,6-diazabicyclo[3.2.1]octan-6-yl hydrogen sulfate] | more active than Avibactam | more active than Avibactam
3 | N[C@@H]1CN[C@H](c2nnc([C@@H]3CC[C@@H]4CN3C(=O)N4OS(=O)(=O)O)o2)C1 [Compound 760, (2S,5R)-2-(5-((2S,4S)-4-aminopyrrolidin-2-yl)-1,3,4-oxadiazol-2-yl)-7-oxo-1,6-diazabicyclo[3.2.1]octan-6-yl hydrogen sulfate] | more active than Avibactam | more active than Avibactam
4 | NC1(Cc2nnc([C@@H]3CC[C@@H]4CN3C(=O)N4OS(=O)(=O)O)o2)CC1 [Compound 724, (2S,5R)-2-(5-((1-aminocyclopropyl)methyl)-1,3,4-oxadiazol-2-yl)-7-oxo-1,6-diazabicyclo[3.2.1]octan-6-yl hydrogen sulfate] | more active than Avibactam | more active than Avibactam
5 | N[C@H]1C[C@@H](c2nnc([C@@H]3CC[C@@H]4CN3C(=O)N4OS(=O)(=O)O)s2)C1 [Compound 795, (2S,5R)-2-(5-((1s,3R)-3-aminocyclobutyl)-1,3,4-thiadiazol-2-yl)-7-oxo-1,6-diazabicyclo[3.2.1]octan-6-yl hydrogen sulfate] | more active than Avibactam | more active than Avibactam
6 | O=C1N2C[C@@H](CC[C@H]2c2nnc(CCCC3CNC3)o2)N1OS(=O)(=O)O [Compound 743, (2S,5R)-2-(5-(3-(azetidin-3-yl)propyl)-1,3,4-oxadiazol-2-yl)-7-oxo-1,6-diazabicyclo[3.2.1]octan-6-yl hydrogen sulfate] | more active than Avibactam | more active than Avibactam
7 | O=C1N2C[C@@H](CC[C@H]2c2nnc(C3CNC3)o2)N1OS(=O)(=O)O [Compound 708, (2S,5R)-2-(5-(azetidin-3-yl)-1,3,4-oxadiazol-2-yl)-7-oxo-1,6-diazabicyclo[3.2.1]octan-6-yl hydrogen sulfate] | more active than Avibactam | more active than Avibactam
8 | N=C(N)Nc1nnc([C@@H]2CC[C@@H]3CN2C(=O)N3OS(=O)(=O)O)o1 [Compound 738, (2S,5R)-2-(5-guanidino-1,3,4-oxadiazol-2-yl)-7-oxo-1,6-diazabicyclo[3.2.1]octan-6-yl hydrogen sulfate] | more active than Avibactam | more active than Avibactam
9 | NCCCCc1nnc([C@@H]2CC[C@@H]3CN2C(=O)N3OS(=O)(=O)O)o1 [Compound 735, (2S,5R)-2-(5-(4-aminobutyl)-1,3,4-oxadiazol-2-yl)-7-oxo-1,6-diazabicyclo[3.2.1]octan-6-yl hydrogen sulfate] | more active than Avibactam | more active than Avibactam
10 | N=C(N)NC[C@@H](O)c1nnc([C@@H]2CC[C@@H]3CN2C(=O)N3OS(=O)(=O)O)o1 [Compound 731, (2S,5R)-2-(5-((R)-2-guanidino-1-hydroxyethyl)-1,3,4-oxadiazol-2-yl)-7-oxo-1,6-diazabicyclo[3.2.1]octan-6-yl hydrogen sulfate] | more active than Avibactam | more active than Avibactam
11 | N=C(N)NCCc1nnc([C@@H]2CC[C@@H]3CN2C(=O)N3OS(=O)(=O)O)s1 [Compound 794, (2S,5R)-2-(5-(2-guanidinoethyl)-1,3,4-thiadiazol-2-yl)-7-oxo-1,6-diazabicyclo[3.2.1]octan-6-yl hydrogen sulfate] | more active than Avibactam | more active than Avibactam
12 | O=C1N2C[C@@H](CC[C@H]2c2nnco2)N1OS(=O)(=O)O [Compound 701, (2S,5R)-2-(1,3,4-oxadiazol-2-yl)-7-oxo-1,6-diazabicyclo[3.2.1]octan-6-yl hydrogen sulfate] | more active than Avibactam | more active than Avibactam
13 | N=C(N)N[C@H]1C[C@@H](c2nnc([C@@H]3CC[C@@H]4CN3C(=O)N4OS(=O)(=O)O)o2)C1 [Compound 749, (2S,5R)-2-(5-((1s,3R)-3-guanidinocyclobutyl)-1,3,4-oxadiazol-2-yl)-7-oxo-1,6-diazabicyclo[3.2.1]octan-6-yl hydrogen sulfate] | more active than Avibactam | more active than Avibactam
14 | N=C(N)N1CC(Cc2nnc([C@@H]3CC[C@@H]4CN3C(=O)N4OS(=O)(=O)O)o2)C1 [Compound 741, (2S,5R)-2-(5-((1-carbamimidoylazetidin-3-yl)methyl)-1,3,4-oxadiazol-2-yl)-7-oxo-1,6-diazabicyclo[3.2.1]octan-6-yl hydrogen sulfate] | more active than Avibactam | more active than Avibactam
15 | N[C@H]1C[C@@H](NCc2nnc([C@@H]3CC[C@@H]4CN3C(=O)N4OS(=O)(=O)O)o2)C1 [Compound 756, (2S,5R)-2-(5-((((1s,3R)-3-aminocyclobutyl)amino)methyl)-1,3,4-oxadiazol-2-yl)-7-oxo-1,6-diazabicyclo[3.2.1]octan-6-yl hydrogen sulfate] | more active than Avibactam | more active than Avibactam
